Measurements as given in patent US20090203708A1, “NOVEL SUBSTITUTED-1-H-QUINAZOLINE-2,4-DIONE DERIVATIVES, PREPARATION METHOD THEREOF AND PHARMACEUTICAL COMPOSITION CONTAINING THE SAME” (Korea Research Institute of Chemical Technology, priority 2006, published 2009).

What was measured:
[1] = molecular target: T1, 5-HT1a (human recombinant receptor, CHO-K1) (Homo sapiens, UniProt P08908); experiment: Radioligand binding assay, 5-HT1a
T1 sequence (P08908 1-422): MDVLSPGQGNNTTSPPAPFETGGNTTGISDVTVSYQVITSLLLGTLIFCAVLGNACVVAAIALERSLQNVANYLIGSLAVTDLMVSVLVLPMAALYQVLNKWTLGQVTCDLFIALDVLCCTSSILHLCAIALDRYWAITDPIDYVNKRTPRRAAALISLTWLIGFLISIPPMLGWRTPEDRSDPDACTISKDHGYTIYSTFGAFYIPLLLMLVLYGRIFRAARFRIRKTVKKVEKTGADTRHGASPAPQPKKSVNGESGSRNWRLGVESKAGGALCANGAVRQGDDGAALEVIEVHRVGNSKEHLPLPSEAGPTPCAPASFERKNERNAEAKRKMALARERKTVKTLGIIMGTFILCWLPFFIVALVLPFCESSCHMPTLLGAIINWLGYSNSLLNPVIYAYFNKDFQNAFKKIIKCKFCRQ

[2] = molecular target: 5-HT7 (human recombinant receptor, CHO-K1) (Homo sapiens, UniProt P34969); experiment: Radioligand binding assay, 5-HT7
Sequence of 5-HT7 (human recombinant receptor, CHO-K1) (P34969 whole entry): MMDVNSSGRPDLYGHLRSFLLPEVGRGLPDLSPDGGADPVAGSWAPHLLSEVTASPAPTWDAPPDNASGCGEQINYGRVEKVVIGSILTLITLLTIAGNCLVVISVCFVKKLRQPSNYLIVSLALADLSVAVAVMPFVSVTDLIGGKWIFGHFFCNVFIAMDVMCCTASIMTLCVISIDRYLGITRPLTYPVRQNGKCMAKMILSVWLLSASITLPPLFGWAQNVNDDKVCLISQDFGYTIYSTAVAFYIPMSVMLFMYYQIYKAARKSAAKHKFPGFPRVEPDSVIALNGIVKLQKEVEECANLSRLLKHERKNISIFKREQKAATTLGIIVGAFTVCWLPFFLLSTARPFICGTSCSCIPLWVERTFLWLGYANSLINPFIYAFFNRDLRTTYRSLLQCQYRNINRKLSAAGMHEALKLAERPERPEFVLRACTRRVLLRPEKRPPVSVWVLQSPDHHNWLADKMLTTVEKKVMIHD

[3] = molecular target: human serotonin 5-HT6 receptor (Homo sapiens, UniProt P50406); experiment: [3H]LSD binding assay for cloned 5-HT6 receptors
Sequence of human serotonin 5-HT6 receptor (P50406 whole entry): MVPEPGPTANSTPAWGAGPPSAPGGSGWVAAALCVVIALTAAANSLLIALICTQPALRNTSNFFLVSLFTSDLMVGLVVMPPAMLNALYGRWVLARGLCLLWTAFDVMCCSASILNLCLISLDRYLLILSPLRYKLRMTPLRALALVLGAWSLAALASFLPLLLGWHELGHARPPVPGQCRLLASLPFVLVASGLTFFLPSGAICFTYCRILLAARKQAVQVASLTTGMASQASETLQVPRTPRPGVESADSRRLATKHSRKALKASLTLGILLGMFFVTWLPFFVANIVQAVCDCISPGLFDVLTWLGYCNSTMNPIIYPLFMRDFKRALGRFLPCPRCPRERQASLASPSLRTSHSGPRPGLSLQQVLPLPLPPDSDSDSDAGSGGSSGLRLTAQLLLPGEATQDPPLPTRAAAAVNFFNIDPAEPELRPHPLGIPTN

D1 receptor = D1 receptor (Homo sapiens, UniProt P21728); experiment: Radioligand binding assay, dopamine D1
Sequence of D1 receptor (P21728 whole entry): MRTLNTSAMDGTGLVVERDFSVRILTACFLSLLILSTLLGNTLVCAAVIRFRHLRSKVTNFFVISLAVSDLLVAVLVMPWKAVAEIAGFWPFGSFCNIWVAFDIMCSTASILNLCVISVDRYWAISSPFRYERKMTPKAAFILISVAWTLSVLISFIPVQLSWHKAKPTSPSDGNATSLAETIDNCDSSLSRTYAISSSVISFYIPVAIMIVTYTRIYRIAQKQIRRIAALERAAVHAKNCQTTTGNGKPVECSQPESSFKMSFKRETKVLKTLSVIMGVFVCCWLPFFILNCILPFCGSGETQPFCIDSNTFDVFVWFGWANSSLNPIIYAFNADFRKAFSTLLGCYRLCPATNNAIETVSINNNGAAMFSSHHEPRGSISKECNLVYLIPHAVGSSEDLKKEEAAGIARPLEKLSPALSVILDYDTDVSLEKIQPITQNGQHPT

[4] = molecular target: T2, 5-HT2c (human recombinant receptor, CHO-K1) (Homo sapiens, UniProt P28335); experiment: Radioligand binding assay, 5-HT2c
T2 sequence (P28335 33-458): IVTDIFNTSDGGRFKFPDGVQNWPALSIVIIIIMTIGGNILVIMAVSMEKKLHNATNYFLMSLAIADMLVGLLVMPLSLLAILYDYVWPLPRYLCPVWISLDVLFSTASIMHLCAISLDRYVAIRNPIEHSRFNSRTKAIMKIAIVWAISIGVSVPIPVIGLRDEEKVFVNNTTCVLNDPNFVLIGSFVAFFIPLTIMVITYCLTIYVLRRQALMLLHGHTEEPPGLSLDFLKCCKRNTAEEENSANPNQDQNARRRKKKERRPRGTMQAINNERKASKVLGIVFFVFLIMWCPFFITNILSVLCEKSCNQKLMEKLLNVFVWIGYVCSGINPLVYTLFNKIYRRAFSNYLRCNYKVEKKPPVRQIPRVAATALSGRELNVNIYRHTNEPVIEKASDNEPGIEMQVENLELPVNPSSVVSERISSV

D3 (hD3 receptor) = D3 (hD3 receptor) (Homo sapiens, UniProt P35462); experiment: Radioligand binding assay, dopamine D3
Sequence of D3 (hD3 receptor) (P35462 whole entry): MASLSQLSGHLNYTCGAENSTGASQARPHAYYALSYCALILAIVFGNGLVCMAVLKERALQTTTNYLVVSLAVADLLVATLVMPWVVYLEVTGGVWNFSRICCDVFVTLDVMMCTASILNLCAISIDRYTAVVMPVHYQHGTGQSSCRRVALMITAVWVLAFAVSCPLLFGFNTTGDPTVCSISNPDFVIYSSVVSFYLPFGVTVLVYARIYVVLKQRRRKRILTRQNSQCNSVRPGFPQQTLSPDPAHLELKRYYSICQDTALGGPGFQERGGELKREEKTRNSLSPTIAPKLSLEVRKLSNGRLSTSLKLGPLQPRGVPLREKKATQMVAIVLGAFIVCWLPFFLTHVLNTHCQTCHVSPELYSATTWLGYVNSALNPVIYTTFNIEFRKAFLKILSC

D4 (hD4.2 receptor) = molecular target: T3, D4 (hD4.2 receptor) (Homo sapiens, UniProt P21917, DEL265-296); experiment: Radioligand binding assay, dopamine D4; details: [3H] YM-09151-2 0.06 nM; read-out: Binding affinity IC50 D4
T3 construct: purchased BioSignal Packard Inc., Montreal, Canada
T3 sequence (P21917 with tags, fused parts or gaps DEL265-296): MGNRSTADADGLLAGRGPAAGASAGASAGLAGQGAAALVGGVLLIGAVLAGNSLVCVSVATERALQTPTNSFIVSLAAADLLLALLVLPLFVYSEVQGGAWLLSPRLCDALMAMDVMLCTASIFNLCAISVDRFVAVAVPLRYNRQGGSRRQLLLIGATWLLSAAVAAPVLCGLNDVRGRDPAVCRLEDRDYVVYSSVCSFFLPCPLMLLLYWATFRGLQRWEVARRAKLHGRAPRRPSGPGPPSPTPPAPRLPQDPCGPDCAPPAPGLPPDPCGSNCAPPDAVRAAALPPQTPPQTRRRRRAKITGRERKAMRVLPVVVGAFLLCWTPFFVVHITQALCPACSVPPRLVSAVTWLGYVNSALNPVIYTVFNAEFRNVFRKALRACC
Experimental: (§1) Radioligand binding assays for dopamine receptor family (D1, D2 and D3) were performed according to the protocols provided by the manufacturer of receptor membranes (BioSignal Packard Inc., Montreal, Canada). The radioligands used were [^3H] spiperone (for hD2L and hD3 receptors, 1 nM) and [^3H] YM-09151-2 (hD4.2 receptor, 0.06 nM). Briefly, the buffer used in the D1, D2 and D3 receptor binding assay was 50 mM Tris-HCl (pH 7.4), containing 10 mM MgCl2 and 1 mM EDTA, or 50 mM Tris-HCl (pH 7.4), containing 5 mM MgCl2, 5 mM EDTA, 5 mM KCl, 1.5 mM CaCl2 and 120 mM NaCl. For [^3H] YM-09151-2 receptor binding assays, 50 mM Tris-HCl (pH 7.4) containing 5 mM MgCl2, 5 mM EDTA, 5 mM KCl and 1.5 mM CaCl2, was used as a buffer. Nonspecific binding was determined with haloperidol (10 μM) for D2 and D3 and clozapine (10 μM) for D4 receptors.
(§2) Competition binding studies were carried out with 7-8 concentrations of the test compound run in duplicate tubes, and isotherms from three assays were calculated by computerized nonlinear regression analysis (GraphPad Prism Program, San Diego, […]) to yield median inhibitory concentration (IC50) values.

[5] = molecular target: 5-HT2a (human recombinant receptor, CHO-K1) (Homo sapiens, UniProt P28223); experiment: Radioligand binding assay, 5-HT2a
Sequence of 5-HT2a (human recombinant receptor, CHO-K1) (P28223 whole entry): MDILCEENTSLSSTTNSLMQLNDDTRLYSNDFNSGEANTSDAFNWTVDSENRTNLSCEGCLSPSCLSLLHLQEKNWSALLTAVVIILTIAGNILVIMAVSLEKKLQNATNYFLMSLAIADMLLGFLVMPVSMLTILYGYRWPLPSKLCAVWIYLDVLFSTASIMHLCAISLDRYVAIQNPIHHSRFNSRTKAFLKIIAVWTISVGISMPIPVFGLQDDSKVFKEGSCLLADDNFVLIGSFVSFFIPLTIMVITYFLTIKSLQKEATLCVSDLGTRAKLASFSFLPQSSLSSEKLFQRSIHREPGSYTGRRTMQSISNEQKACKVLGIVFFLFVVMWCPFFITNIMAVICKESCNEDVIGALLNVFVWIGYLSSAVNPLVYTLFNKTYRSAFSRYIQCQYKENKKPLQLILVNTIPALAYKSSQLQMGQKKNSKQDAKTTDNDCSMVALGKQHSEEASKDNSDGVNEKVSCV

D2 (hD2L receptor) = molecular target: T4, D2 (hD2L receptor) (Homo sapiens, UniProt P14416); experiment: Radioligand binding assay, dopamine D2; details: [3H] spiperone 1 nM; read-out: Binding affinity IC50 D2
T4 construct: purchased BioSignal Packard Inc., Montreal, Canada
T4 sequence (P14416 whole entry): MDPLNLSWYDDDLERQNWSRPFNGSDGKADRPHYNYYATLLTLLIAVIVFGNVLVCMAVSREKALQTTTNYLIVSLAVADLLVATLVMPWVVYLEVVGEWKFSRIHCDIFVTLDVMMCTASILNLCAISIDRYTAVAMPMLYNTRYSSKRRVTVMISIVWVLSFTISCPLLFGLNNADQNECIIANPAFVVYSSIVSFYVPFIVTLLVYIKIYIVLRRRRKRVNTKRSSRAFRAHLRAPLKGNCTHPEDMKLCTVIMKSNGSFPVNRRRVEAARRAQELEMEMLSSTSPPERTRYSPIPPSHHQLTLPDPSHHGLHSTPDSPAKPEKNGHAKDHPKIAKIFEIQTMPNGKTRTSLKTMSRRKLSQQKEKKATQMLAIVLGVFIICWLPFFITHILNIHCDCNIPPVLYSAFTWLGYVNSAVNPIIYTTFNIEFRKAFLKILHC
Experimental: as §1, §2

[6] = test system: apomorphine-induced PPI disruption; experiment: Apomorphine-induced PPI disruption in rat
lethality = experiment: Lethality (LD50) in mice; format: in vivo; details: i.p.
rotarod deficit = experiment: Rotarod deficit in mice; format: in vivo
Experimental: In order to examine the effects of the compounds of the present invention on the central nervous system and behavior, a rotarod test was performed as follows.
Mice were placed on a plastic rod having a node 1 inch in diameter (Ugo-Basile, Milano, Italy), followed by rotating the rod at a speed of 6 rpm. 30, 60, 90 and 120 min after the administration of test compounds, the mice that fell from the rotating rod within 1 min were counted to determine rotarod deficits (%) (Dunham et al., 1957).

[7] = in vivo; cited from earlier work
[8] = test system: rat maximal electroseizure threshold; details: oral administration, literature; cited from earlier work
[9] = test system: retention of a previously learned task; details: rats, literature; cited from earlier work

Compound | IC50 [1] [nM] | IC50 [2] [nM] | IC50 [3] [nM] | melting point [°C] | IC50 (D1 receptor) [nM] | IC50 [4] [nM] | IC50 (D3 (hD3 receptor)) [nM] | IC50 (D4 (hD4.2 receptor)) [nM] | IC50 [5] [nM] | IC50 (D2 (hD2L receptor)) [nM] | effect of compound alone on PPI versus vehicle control ([6]; rat, 2.5, 5, 10 and 20 mg/kg i.p. alone) | Lethal Degrees LD50 (lethality) | mean startle amplitude versus apomorphine positive control ([6]; rat, given 30 min before apomorphine) | effect of pretreatment on apomorphine-induced PPI disruption ([6]; rat, i.p. 30 min before apomorphine (2 mg/kg, i.p.), 2.5, 5, 10 and 20 mg/kg) | Rotarod Deficit TD50 (rotarod deficit; mice, i.p. 30 min before testing) | rotarod dysfunction (rotarod deficit; mouse, in vivo, ip, 150 mg/kg, 120 min) [%] | bioavailability (in words) [7] | clearance (in words) [7] | seizure threshold (rat maximal electroseizure threshold) [8] | retention of a previously learned task in water maze [9]
CN1CCN(c2cc(Cl)cc3c2c(=O)n(Cc2ccccc2)c(=O)n3Cc2ccccc2)CC1 [Example 10, 1,3-dibenzyl-7-chloro-5-(4-methyl-piperazin-1yl)-1H-quinazoline-2,4-dione] | 4590 | 6780 | 2.4 | 113 to 116 | 5560 | 4760 | 1550 | > 10000 | 1690 | 4350 | – | – | – | – | – | – | – | – | – | –
CN1CCN(c2cc(Cl)cc3c2c(=O)n(CCc2ccccc2)c(=O)n3Cc2ccccc2)CC1 [Example 42, 1-benzyl-7-chloro-5-(4-methyl-piperazin-1-yl)-3-phenethyl-1H-quinazoline-2,4-dione] | 1300 | 7030 | 0.5 | 136 to 138 | 3450 | 430 | 638 | > 10000 | 244 | 2500 | – | – | – | – | – | – | – | – | – | –
CN1CCN(c2cc(Cl)cc3c2c(=O)n(CCCc2ccccc2)c(=O)n3Cc2ccccc2)CC1 [Example 43, 1-benzyl-7-chloro-5-(4-methyl-piperazin-1-yl)-3-(3-phenyl-propyl)-1H-quinazoline-2,4-dione] | 2640 | 7760 | 2.7 | 55 to 63 | 961 | 1420 | 1750 | > 10000 | 892 | 5670 | – | – | – | – | – | – | – | – | – | –
O=c1c2c(N3CCNCC3)cc(Cl)cc2n(Cc2ccccc2)c(=O)n1Cc1ccccc1Br [Example 60, 1-benzyl-3-(2-bromo-benzyl)-7-chloro-5-piperazin-1-yl-1H-quinazoline-2,4-dione] | – | – | 3.9 | 94 to 97 | – | – | – | – | – | – | no significant effects | – | – | – | – | – | – | – | – | –
C[C@H](c1ccccc1)n1c(=O)c2c(N3CCNCC3)cc(Cl)cc2n(Cc2ccccc2)c1=O [Example 68, 1-benzyl-7-chloro-3-[(R)-1-phenyl-ethyl]-5-piperazin-1yl-1H-quinazoline-2,4-dione] | – | – | 6.8 | – | – | – | – | – | – | – | – | 152 mg/kg, ip | did not induce significant difference in mean startle amplitude | found to inhibit apomorphine (2 mg/kg, i.p.)-induced PPI disruption | 122 mg/kg, ip | 100 | – | – | – | –
O=c1c2c(N3CCNCC3)cc(Cl)cc2n(Cc2ccccc2)c(=O)n1CCc1ccccc1 [Example 70, 1-benzyl-7-chloro-3-phenethyl-5-piperazin-1-yl-1H-quinazoline-2,4-dione] | 2910 | 7710 | 0.6 | – | 5710 | 752 | 2840 | > 10000 | 401 | 7440 | – | – | – | – | – | – | – | – | – | –
O=c1c2c(N3CCNCC3)cc(Cl)cc2n(Cc2ccccc2)c(=O)n1CCCc1ccccc1 [Example 71, 1-benzyl-7-chloro-3-(3-phenyl-propyl)-5-piperazin-1-yl-1H-quinazoline-2,4-dione] | 891 | 3050 | 1.8 | 62 to 68 | 2320 | 1100 | 1200 | > 10000 | 733 | 2720 | – | – | – | – | – | – | – | – | – | –
COc1ccc(S(=O)(=O)Nc2cc(Br)cc(F)c2Br)cc1N1CCNCC1 [SB-357134] | – | – | – | – | – | – | – | – | – | – | – | – | – | – | – | – | excellent oral bioavailability | low clearance rate | potent and dose-dependent increase in seizure threshold | significant improvement in retention of a previously learned task
